Experimental data from patent publication US7550465B2, “Pyrido[3,2-e]pyrazines, their use as inhibitors of phosphodiesterase 10, and processes for preparing them” (Elbion GmbH, priority 2006, dated 2009).
Each block holds one compound with its values, some of them ahead of it.

Key:
[1] = system: MK-801-induced hyperactivity and stereotyped sniffing; assay: MK-801-induced psychosis (hyperactivity and stereotyped sniffing); format: in vivo, rat; conditions: p.o., 30 min before test (Example 30: 60 min), female Wistar rats, MK-801 0.1 mg/kg i.p. 10 min before, vs MK-801 control; for dose significantly reversing MK-801-induced hyperactivity: activity recorded 1 h; for dose significantly reversing MK-801-induced stereotyped sniffing: scored 1 h
Procedure: Female Wistar rats (Crl: (WI) BR, Charles River, Sulzfeld, Germany) weighing 150 to 180 g were used for the MK-801-induced psychosis. Animals were housed under standard conditions in groups of five on a 12 h light/dark cycle (light on at 0600 h) with ad libitum access to food (Pellets, ssniff M/R 15, Spezialdiät GmbH, Soest/Westfalen) and
Hydroxyethylcellulose was solved in distilled water.
MK-801 was solved in saline so that an administration volume of 0.5 ml/100 g was reached. The suspensions and solution were placed on a magnetic stirrer before and during dosing procedures.
The behaviour induced by the NMDA antagonist MK-801 is generally accepted as a rat model of psychosis. MK-801 induces stereotyped sniffing, hyperactivity and ataxia in rats after intraperitoneal administration.
Locomotor activity of the rats was recorded by the MotiTest Apparatus (TSE, Bad Homburg, Germany). The test area consisted of a squared arena (45×45 cm) with protective plexiglass walls (20 cm of height) where rats could freely move. Horizontal movements were recorded by 32 infrared photocells arranged along the bottom of each wall of the arena. The activity [sec] was measured by the computer program “ActiMot” (TSE, Bad Homburg, Germany).
Stereotyped sniffing was scored by the experimenter every five minutes for one hour (12 intervals) according to the method described by Andiné et al. (1999). The scores of the 12 intervals were summed up at the end of the recording time.
The day of experiment the female rats were placed in the laboratory and received the test compound or vehicle at the appropriate time prior to test. MK-801 0.1 mg/kg was intraperitoneally administered 10 minutes prior to test.
At the beginning of the test the rats were placed in the centre of the squared arena of the MotiTest apparatus. Behaviour of the rats was recorded for one hour. After each run animals were removed and the boxes thoroughly cleaned and dried.
Results were analysed by one way analysis of variance (ANOVA). Tukey test was used for individual comparison. P<0.05 was regarded as significant.

[2] = biological target: PDE10 from guinea pig striatum (Cavia porcellus, UniProt A0A286XN47); assay: Inhibition of PDE10 from guinea pig striatum ([3H]-cAMP SPA); format: biochemical; conditions: guinea pig striatum preparation; 0.1 μM [3H]-cAMP; 37° C., 30 minutes
Procedure: (§1) Phosphodiesterase isoenzyme 10 (PDE10) activity was determined in preparations of rat, pig and guinea pig striatum respectively. Striatum from male Wistar rats (180-200 g), male hybrid pigs (150 kg) and male guinea pigs (CRL (HA), 500 g) respectively were collected and frozen at −70° C.
(§2) For the enzymatic testing of PDE10 activity 0.5 g of the isolated and frozen striatum was homogenised in 10 ml 50 mM Tris/Mg-buffer at 4° C. and centrifuged for one hour at 100000 g.
(§3) Nonspecific activity was tested without the enzyme. […] For determination of IC50 values the Hill-plot, 2-parameter-model, was used.

PDE10 from rat striatum = biological target: T1, PDE10 from rat striatum (Rattus norvegicus, UniProt Q9QYJ6); assay: Inhibition of PDE10 from rat striatum ([3H]-cAMP SPA); format: biochemical; conditions: substrate of the enzyme preparation
T1 construct: from tissue; host or cells: rat striatum (male Wistar rats), homogenate fractions enriched on HiTrap Q HP
T1 sequence (Q9QYJ6 1-794): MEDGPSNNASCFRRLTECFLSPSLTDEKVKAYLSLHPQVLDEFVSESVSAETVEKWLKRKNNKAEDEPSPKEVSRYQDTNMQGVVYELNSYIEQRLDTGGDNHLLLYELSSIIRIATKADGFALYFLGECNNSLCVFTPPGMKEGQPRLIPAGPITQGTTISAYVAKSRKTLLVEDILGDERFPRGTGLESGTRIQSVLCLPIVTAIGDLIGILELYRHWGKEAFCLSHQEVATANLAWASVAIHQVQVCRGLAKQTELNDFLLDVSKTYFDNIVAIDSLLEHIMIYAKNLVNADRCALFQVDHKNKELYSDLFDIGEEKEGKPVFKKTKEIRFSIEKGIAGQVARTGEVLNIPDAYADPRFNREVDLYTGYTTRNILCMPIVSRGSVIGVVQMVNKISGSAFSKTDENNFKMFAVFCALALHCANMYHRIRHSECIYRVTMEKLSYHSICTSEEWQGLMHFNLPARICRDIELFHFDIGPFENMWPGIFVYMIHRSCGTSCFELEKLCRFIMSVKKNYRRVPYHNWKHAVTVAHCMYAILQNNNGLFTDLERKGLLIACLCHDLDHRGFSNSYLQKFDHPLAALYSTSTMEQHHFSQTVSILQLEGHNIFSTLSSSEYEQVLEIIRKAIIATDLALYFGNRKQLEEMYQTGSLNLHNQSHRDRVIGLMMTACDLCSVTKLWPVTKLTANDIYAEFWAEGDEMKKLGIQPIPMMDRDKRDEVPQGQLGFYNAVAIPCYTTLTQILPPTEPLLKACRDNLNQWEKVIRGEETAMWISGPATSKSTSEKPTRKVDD
Procedure: as §1, §2, §3

PDE10 from pig striatum = PDE10 from pig striatum (Sus scrofa, UniProt A0A287B941); assay: Inhibition of PDE10 from pig striatum ([3H]-cAMP SPA); format: biochemical; conditions: for IC50: pig striatum preparation, 0.1 μM [3H]-cAMP, 37° C., 30 minutes
Procedure: as §1, §2, §3

Chain of PDE10 from guinea pig striatum (A0A286XN47 1-773): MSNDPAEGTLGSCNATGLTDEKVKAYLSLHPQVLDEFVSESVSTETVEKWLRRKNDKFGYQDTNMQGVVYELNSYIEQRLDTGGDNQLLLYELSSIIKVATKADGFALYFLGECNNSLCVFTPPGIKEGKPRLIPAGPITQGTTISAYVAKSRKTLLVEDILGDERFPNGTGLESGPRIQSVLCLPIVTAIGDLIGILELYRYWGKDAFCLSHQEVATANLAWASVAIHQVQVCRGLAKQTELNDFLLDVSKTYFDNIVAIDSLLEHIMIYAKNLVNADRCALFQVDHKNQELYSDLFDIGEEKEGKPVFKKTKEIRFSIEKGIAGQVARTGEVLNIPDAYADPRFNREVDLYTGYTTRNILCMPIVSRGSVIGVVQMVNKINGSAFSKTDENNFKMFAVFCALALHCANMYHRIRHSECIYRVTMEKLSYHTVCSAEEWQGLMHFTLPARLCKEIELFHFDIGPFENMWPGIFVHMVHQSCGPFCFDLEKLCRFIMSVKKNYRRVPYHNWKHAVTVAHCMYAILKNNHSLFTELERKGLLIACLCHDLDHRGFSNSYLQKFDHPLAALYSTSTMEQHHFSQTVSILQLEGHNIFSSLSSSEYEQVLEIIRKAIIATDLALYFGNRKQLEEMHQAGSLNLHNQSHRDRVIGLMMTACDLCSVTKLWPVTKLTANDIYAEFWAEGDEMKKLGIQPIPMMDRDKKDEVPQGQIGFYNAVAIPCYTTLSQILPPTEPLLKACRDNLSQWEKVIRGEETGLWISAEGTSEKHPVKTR

Compound: 4-cyano-8-methoxy-3-methyl-1-ethyl-imidazo[1,5-a]pyrido[3,2-e]pyrazine [Example 30]
dose significantly reversing MK-801-induced hyperactivity [1]: ≥ 10 mg/kg
dose significantly reversing MK-801-induced stereotyped sniffing [1]: ≥ 10 mg/kg

melting point: 159 to 162 °C
Compound: CCN1CC(C)=CC2=C1N1CN(OC)C=C1C=N2 [Example 36, 1-ethyl-8-methoxy-3-methyl-imidazo[1,5-a]pyrido[3,2-e]pyrazine]

melting point: 250 to 253 °C
Compound: CON1C=C2C=NC3=C(N(CCC(F)(F)F)CC(C)=C3NS(C)(=O)=O)N2C1 [Example 78, 8-methoxy-3-methyl-1-(3,3,3-trifluoropropyl)-4-methylsulfonylamino-imidazo[1,5-a]pyrido[3,2-e]pyrazine]

melting point: 189 to 192 °C
Compound: CCN1CC(C)=C([S+](C)[O-])C2=C1N1CN(OC)C=C1C=N2 (centres unmarked) [Example 34, 1-ethyl-8-methoxy-3-methyl-4-methylsulfinyl-imidazo[1,5-a]pyrido[3,2-e]pyrazine]

Compound: 8-methoxy-3-methyl-1-propyl-imidazo[1,5-a]pyrido[3,2-e]pyrazine [Example 35]
dose significantly reversing MK-801-induced hyperactivity [1]: 30 mg/kg
dose significantly reversing MK-801-induced stereotyped sniffing [1]: ≥ 30 mg/kg

IC50 [2]: 0.018 µM
Compound: CCCc1nc(C)c2c(C#N)nc3ccc(OC)nc3n12 [Example 29, 4-cyano-8-methoxy-3-methyl-1-propyl-imidazo[1,5-a]pyrido[3,2e]pyrazine]
dose significantly reversing MK-801-induced stereotyped sniffing [1]: ≥ 5 mg/kg

melting point: 206 to 209 °C
Compound: CCCN1CC(C)=C(N(S(=O)(=O)c2ccc(C)cc2)S(=O)(=O)c2ccc(C)cc2)C2=C1N1CN(OC)C=C1C=N2 [Example 77, 4-[N,N-bis-(4-methylphenylsulfonyl)-amino]-8-methoxy-3-methyl-1-propyl-imidazo[1,5-a]pyrido[3,2-e]pyrazine]

Km (PDE10 from rat striatum): 1.8 µM
Km (PDE10 from pig striatum; substrate of the enzyme preparation): 2.2 µM
Compound: Nc1nc2c(ncn2[C@@H]2O[C@@H]3COP(=O)(O)O[C@H]3[C@H]2O)c(=O)[nH]1 [cGMP]

melting point: 229 to 232 °C
Compound: CCCN1CC(C)=C(NS(=O)(=O)c2ccc(C)cc2)C2=C1N1CN(OC)C=C1C=N2 [Example 76, 8-methoxy-3-methyl-4-(4-methylphenylsulfonylamino)-1-propyl-imidazo[1,5-a]pyrido[3,2-e]pyrazine]

IC50 (PDE10 from pig striatum): 0.019 µM
Compound: CCCc1nc(C)c2c(NS(=O)(=O)C(F)(F)F)nc3ccc(OC)nc3n12 [Example 73, 8-methoxy-3-methyl-1-propyl-4-trifluoromethylsulfonylamino-imidazo[1,5a]pyrido[3,2-e]pyrazine]

melting point: 113 to 116 °C
Compound: CCCN1CC=C(OC)C2=C1N1CN(OC)C=C1C=N2 [Example 2, 4,8-dimethoxy-1-propyl-imidazo[1,5-a]pyrido[3,2-e]pyrazine]

Compound: 8-methoxy-4-methoxycarbonylamino-3-methyl-1-propyl-imidazo[1,5-a]pyrido[3,2-e]pyrazine [Example 62]
dose significantly reversing MK-801-induced hyperactivity [1]: 5 mg/kg
dose significantly reversing MK-801-induced stereotyped sniffing [1]: 5 mg/kg

melting point: 203 to 206 °C
Compound: CCCN1CC(C)=C(NS(=O)(=O)CCC)C2=C1N1CN(OC)C=C1C=N2 [Example 74, 8-methoxy-3-methyl-1-propyl-4-propylsulfonylamino-imidazo[1,5-a]pyrido[3,2-e]pyrazine]

melting point: 112 to 115 °C
Compound: CCCN1CC(C)=C(SC)C2=C1N1CN(OC)C=C1C=N2 [Example 26, 8-methoxy-3-methyl-4-methylthio-1-propyl-imidazo[1,5-a]pyrido[3,2-e]pyrazine]

IC50 (PDE10 from pig striatum): 0.043 µM
Compound: 1-propyl-4,8-dimethyl-imidazo[1,5-a]pyrido[3,2-e]pyrazine [Example 53]

melting point: 104 to 107 °C
Compound: CCCN1CC(C)=C(C)C2=C1N1CN(C)C=C1C=N2 [Example 51, 1-propyl-3,4,8-trimethyl-imidazo[1,5-a]pyrido[3,2-e]pyrazine]

melting point: 78 to 81 °C
Compound: CCCOC1=C(C)CN(CC)C2=C1N=CC1=CN(OC)CN12 [Example 7, 1-ethyl-8-methoxy-3-methyl-4-propyloxy-imidazo[1,5-a]pyrido[3,2-e]pyrazine]

Compound: 3,4-dimethyl-8-(piperidin-1-yl)-methoxy-1-propyl-imidazo[1,5-a]pyrido[3,2-e]pyrazine [Example 55]
dose significantly reversing MK-801-induced hyperactivity [1]: 30 mg/kg
dose significantly reversing MK-801-induced stereotyped sniffing [1]: 30 mg/kg

melting point: 217 to 220 °C
Compound: CON1C=C2C=NC3=C(N2C1)N(c1ccccc1)CC(C)=C3NS(C)(=O)=O [Example 81, 8-methoxy-3-methyl-1-phenyl-4-methylsulfonylamino-imidazo[1,5-a]pyrido[3,2-e]pyrazine]

melting point: 78 to 80 °C
Compound: CCCN1CC(C)=C(OC(C)C)C2=C1N1CN(OC)C=C1C=N2 [Example 9, 4-isopropyloxy-8-methoxy-3-methyl-1-propyl-imidazo[1,5-a]pyrido[3,2-e]pyrazine]
